Consider 33 molecules from patent US6080772A, “Thiazole compounds and methods of modulating signal transduction” (Sugen, Inc., priority 1997, dated 2000).

A value given as a limit tells only on which side of the number the result lay.

One test concerns insulin receptor (IR). The test is described as follows: Phosphotyrosine enzyme linked immunosorbent assay: pTyr on insulin receptor in NIH3T3 cells over-expressing human IR (H25 cells). As to conditions: Table III; at 50 μM.
As for `CC(=O)Nc1ccc(-n2nnnc2Sc2ncc([N+](=O)[O-])s2)cc1` [Compound 31, 1-(4-Acetamidophenyl)-5-[(5-nitrothiazol-2-yl)mercapto]tetrazole], the “increase (PTYR)” value was found to be 49%.

The same test, now with this note: Table III; at 100 μM.
Take `Nc1ccc(-n2nnnc2Sc2ncc([N+](=O)[O-])s2)cc1` [Compound 32, 1-(4-Aminophenyl)-5-[(5-nitrothiazol-2-yl)mercapto]tetrazole]: the “increase in PTYR” value came out at 40%.
As to `COc1ccc2nc(Sc3ncc([N+](=O)[O-])s3)[nH]c2c1` [Compound 45, 5-Methoxy-2-[(5-nitrothiazol-2-yl)mercapto]benzimidazole], the “increase in PTYR” value turned out to be 46%.

Staying with this test, now noted: from 15.6 μM to 250 μM.
Consider `O=[N+]([O-])c1cnc(Nc2nc(-c3ccc(Cl)cc3)n[nH]2)s1` [Compound 10, 3-(4-chlorophenyl)-5-[(5-nitrothiazol-2-yl)amino]-1,2,4-triazole], for which the “dose dependence of the increase in the pTyr level” value is recorded as “dependent on the dose”.

The same test, now with this note: read-out: ACTIVITY EC50.
For orientation: EC50 means the concentration giving half of the maximal effect. For `O=[N+]([O-])c1cnc(Sc2nnc(Sc3nnc(SCCCl)s3)s2)s1` [Compound 26, 2-(2-Chloroethylmercapto)-5-[[2-[(5-nitrothiazol-2-yl)mercapto]-1,3,4-thiadiazol-5-yl]mercapto]-1,3,4-thiadiazole], the EC50 was 46 µM.
As for `CCNC(=O)n1c(Sc2ncc([N+](=O)[O-])s2)nc2cc([N+](=O)[O-])ccc21` [Compound 18, 1-Ethylaminocarbonyl-5-nitro-2-[(5-nitrothiazol-2-yl)mercapto]benzimidazole], the EC50 came out at 16 µM.

Staying with this test, now noted: read-out: ACTIVITY EC50; Table III; […].
Take `COc1ccccc1Nc1nnc(Sc2ncc([N+](=O)[O-])s2)s1` [Compound 76, 2-(2-Methoxyphenylamino)-5-[(5-nitrothiazol-2-yl)mercapto]-1,3,4-thiadiazol]: the concentration for a half-maximal effect (EC50) is 63.8 µM.
As for `CC(=O)Nc1ccc(-n2nnnc2Sc2ncc([N+](=O)[O-])s2)cc1` [Compound 31, 1-(4-Acetamidophenyl)-5-[(5-nitrothiazol-2-yl)mercapto]tetrazole], the EC50 is more than 100 µM.
On the same count and under the same terms, the value for `CCCn1c(Sc2ncc([N+](=O)[O-])s2)nc2c(O)nnc(O)c21` [Compound 49] was 4 µM.
Same read-out and setting: the value for `O=CNc1nnc(Sc2ncc([N+](=O)[O-])s2)s1` [Compound 22, 2-Formamido-5-[(5-nitrothiazol-2-yl)mercapto]-1,3,4-thiadiazole] was 29 µM.
The same measure, in the same setting: the value for `O=[N+]([O-])c1cnc(Sc2nccc(-c3ccc(-n4cnc(Cl)c4Cl)cc3)n2)s1` [Compound 67, 4-[4-(4,5-Dichloroimidazol-1-yl)phenyl]-2-[(5-nitrothiazol-2-yl)mercapto]pyrimidine] was 3 µM; that for `O=C(CN(c1ccccc1)c1nnc(Sc2ncc([N+](=O)[O-])s2)s1)Nc1cccc(C(F)(F)F)c1` [Compound 21, 2-[N-Phenyl-N-[3-(trifluoromethyl)phenylaminocarbonylmethyl]amino]-5-[(5-nitrothiazol-2-yl)mercapto]-1,3,4-thiadiazole] was more than 50 µM; that for `O=c1[nH]c(Sc2ncc([N+](=O)[O-])s2)nc2ccccc12` [Compound 35, 2-[(5-Nitrothiazol-2-yl)mercapto]-4-quinazolone] was more than 25 µM.
`O=[N+]([O-])c1cnc(Sc2nccn2Cc2ccccc2)s1` [Compound 16, 1-Benzyl-2-[(5-nitrothiazol-2-yl)mercapto]imidazole]: the EC50 was 27 µM.
Take `Cc1nc2nc(Sc3ncc([N+](=O)[O-])s3)[nH]c2cc1Br` [Compound 19]: the EC50 was more than 100 µM.
Consider `O=[N+]([O-])c1cnc(Sc2nnnn2-c2ccc(F)cc2)s1` [Compound 54, 1-(4-Fuorophenyl)-5-[(5-nitrothiazol-2-yl)mercapto]tetrazole], for which the EC50 was determined as 42 µM.
On to `C=CCn1nnnc1Sc1ncc([N+](=O)[O-])s1` [Compound 30, 1-Allyl-5-[(5-nitrothiazol-2-yl)mercapto]tetrazole], for which the EC50 is 32 µM.
On the same count and under the same terms, then `O=[N+]([O-])c1cnc(Sc2nnc(SCc3cccc(C(F)(F)F)c3)s2)s1` [Compound 63, 2-[(5-Nitrothiazol-2-yl)mercapto]-5-[3-(trifluoromethyl)benzylmercapto]-1,3,4-thiadiazole], with 75 µM.
For `Nc1nnc(Sc2ncc([N+](=O)[O-])s2)s1` [Compound 38, 2-Amino-5-[(5-nitrothiazol-2-yl)mercapto]-1,3,4-thiadiazole], the EC50 was found to be 15.6 µM.
Same read-out and setting: then `O=[N+]([O-])c1cnc(Sc2nnc(Nc3ccccc3Cl)s2)s1` [Compound 81, 2-(2-Chlorophenylamino)-5-[(5-nitrothiazol-2-yl)mercapto]-1,3,4-thiadiazole], with 34 µM.
Same read-out and setting: then `Cc1cc(C)c(Nc2nnc(Sc3ncc([N+](=O)[O-])s3)s2)cc1C` [Compound 74, 2-[(5-Nitrothiazol-2-yl)mercapto]-5(2,4,5-trimethylphenylamino)-1,3,4-thiadiazole], with more than 100 µM; and `CCOC(=O)CSc1nnc(Sc2nnc(Sc3ncc([N+](=O)[O-])s3)s2)s1` [Compound 25, 2-[(Ethoxycarbonyl)methylmercapto]-5-[[2-[(5-nitrothiazol-2-yl)mercapto]-1,3,4-thiadiazol-5-yl]mercapto]-1,3,4-thiadiazole], with 48 µM; and `O=[N+]([O-])c1cnc(Sc2nnc(SCC3CC3)s2)s1` [Compound 62, 2-Cyclopropylmethylmercapto-5-[(5-nitrothiazol-2-yl)mercapto]-1,3,4-thiadiazole], with more than 100 µM.
On the same count and under the same terms, the value for `O=[N+]([O-])c1cnc(Sc2nc(O)c3nc(O)[nH]c3n2)s1` [Compound 37] was more than 100 µM; that for `Nc1nnc(Sc2ncc([N+](=O)[O-])s2)s1` [Compound 59, 2-Amino-5-[(5-nitrothiazol-2-yl)mercapto]-1,3,4-thiadiazole] was more than 100 µM; that for `O=[N+]([O-])c1cnc(Sc2nc3ncccc3[nH]2)s1` [Compound 20] was 15 µM.
For `O=[N+]([O-])c1cnc(Sc2nc3cc(C(F)(F)F)cc(Br)c3[nH]2)s1` [Compound 40, 4-Bromo-2-[(5-nitrothiazol-2-yl)mercapto]-6-(trifluoromethyl)benzimidazole], the EC50 was 8.6 µM.
The same measure, in the same setting: the value for `Cc1ccc2nc(Sc3ncc([N+](=O)[O-])s3)[nH]c2c1` [Compound 50, 5-Methyl-2-[(5-nitrothiazol-2-yl)mercapto]benzimidazole] was more than 100 µM.
Regarding `O=[N+]([O-])c1cnc(Sc2nnc(Nc3ccccc3)s2)s1` [Compound 73, 2-[(5-Nitrothiazol-2-yl)mercapto]-5-phenylamino-1,3,4-thiadiazole], the EC50 came out at 10 µM.
Still for that read-out and setting: the value for `CC(C)n1c(Sc2ncc([N+](=O)[O-])s2)nc2cc(Cl)ccc21` [Compound 52, 5-Chloro-1-isopropyl-2-[(5-nitrothiazol-2-yl)mercapto]benzimidazole] was more than 50 µM; that for `CCn1nnnc1Sc1ncc([N+](=O)[O-])s1` [Compound 34, 1-Ethyl-5-[(5-nitrothiazol-2-yl)mercapto]tetrazole] was 33 µM.
The same measure, in the same setting: the value for `Cc1ccc(S(=O)(=O)n2c(Sc3ncc([N+](=O)[O-])s3)nc3ccccc32)cc1` [Compound 17, 1-Tosyl-2-[(5-nitrothiazol-2-yl)mercapto]benzimidazole] was more than 25 µM; that for `O=C(O)Cn1nnnc1Sc1ncc([N+](=O)[O-])s1` [Compound 58, 1-Carboxymethyl-5-[(5-nitrothiazol-2-yl)mercapto]tetrazole] was 40 µM; that for `O=[N+]([O-])c1cnc(Sc2nnnn2-c2ccc(O)cc2)s1` [Compound 55, 1-(4-Hydroxyphenyl)-5-[(5-nitrothiazol-2-yl)mercapto]tetrazole] was 41 µM.
